For 20 compounds, EC50 results are on record in patent US12071441B2, “10-(di(phenyl)methyl)-4-hydroxy-8,9,9A,10-tetrahydro-7H-pyrrolo[1′,2′:4,5]pyrazino[1,2-b]pyridazine-3,5-dione derivatives and related compounds as inhibitors of the orthomyxovirus replication for treating influenza” (Novartis AG, priority 2018, dated 2024).

Assay in all cases: microbe, parasite or virus in culture
Common to all, as to assay type: cell-based

Assay [1] deals with influenza A virus minigenome (PB2, PB1, PA, NP; luciferase reporter) in 293T cells, RNP_Hubei. To be noted: HEK-293T, 48 h.
Assay [2] has as its system influenza A virus minigenome (PB2, PB1, PA, NP; luciferase reporter) in 293T cells, RNP_Alaska. To be noted: HEK-293T, 48 h.
For assay [3], the system named is influenza A virus minigenome (PB2, PB1, PA, NP; luciferase reporter) in 293T cells, RNP_CAL. The note with it: HEK-293T, 48 h, read-out: RNP_CAL_EC50.

SMILES strings stand for the structures. pEC50: −log10 of the molar value.

For the compound `COC(C)(C)CC(=O)Oc1c2n(ncc1=O)[C@@H]([C@H](c1ccccc1)c1cccc(F)c1F)[C@H]1CCCN1C2=O` [Example 39, (9aR,10S)-10-((R)-(2,3-difluorophenyl)(phenyl)methyl)-3,5-dioxo-3,5,8,9,9a,10-hexahydro-7H-pyrrolo[1′,2′:4,5]pyrazino[1,2-b]pyridazin-4-yl 3-methoxy-3-methylbutanoate], the pEC50 in assay [1], in assay [2] and in assay [3] was > 7.00 throughout.
Take `COC(=O)C(C)(C)OC(=O)OCOc1c2n(ncc1=O)[C@@H]([C@H](c1cccc(F)c1)c1cccc(F)c1F)[C@H]1CCCN1C2=O` [Example 104, methyl 2-((((((9aR,10S)-10-((R)-(2,3-difluorophenyl)(3-fluorophenyl)methyl)-3,5-dioxo-3,5,8,9,9a,10-hexahydro-7H-pyrrolo[1′,2′:4,5]pyrazino[1,2-b]pyridazin-4-yl)oxy)methoxy)carbonyl)oxy)-2-methylpropanoate]: the pEC50 in assay [1], in assay [2] and in assay [3] was 6.00 to 7.00 each time.
Regarding `CC(=O)OCOc1c2n(ncc1=O)[C@@H]([C@H](c1cccc(F)c1)c1cccc(F)c1F)[C@H]1CCCN1C2=O` [Example 114, (((9aR,10S)-10-((R)-(2,3-difluorophenyl)(3-fluorophenyl)methyl)-3,5-dioxo-3,5,8,9,9a,10-hexahydro-7H-pyrrolo[1′,2′:4,5]pyrazino[1,2-b]pyridazin-4-yl)oxy)methyl acetate], the pEC50 in assay [1], in assay [2] and in assay [3] was > 7.00 in each case.
In the case of `COC(=O)OCOc1c2n(ncc1=O)[C@@H]([C@H](c1cccc(F)c1)c1ccc(F)c(F)c1)[C@H]1CCCN1C2=O` [Example 45, (((9aR,10S)-10-((R)-(3,4-difluorophenyl)(3-fluorophenyl)methyl)-3,5-dioxo-3,5,8,9,9a,10-hexahydro-7H-pyrrolo[1′,2′:4,5]pyrazino[1,2-b]pyridazin-4-yl)oxy)methyl methyl carbonate], the pEC50 in assay [1], in assay [2] and in assay [3] was > 7.00 in each case.
`O=C(CC1CCOCC1)Oc1c2n(ncc1=O)[C@@H]([C@H](c1ccccc1)c1cccc(F)c1F)[C@H]1CCCN1C2=O` [Example 73, (9aR,10S)-10-((R)-(2,3-difluorophenyl)(phenyl)methyl)-3,5-dioxo-3,5,8,9,9a,10-hexahydro-7H-pyrrolo[1′,2′:4,5]pyrazino[1,2-b]pyridazin-4-yl 2-(tetrahydro-2H-pyran-4-yl)acetate]: the pEC50 in assay [1], in assay [2] and in assay [3] was > 7.00 throughout.
With `COCCOC(=O)Oc1c2n(ncc1=O)[C@@H]([C@H](c1ccccc1)c1cccc(F)c1F)[C@H]1CCCN1C2=O` [Example 50, (9aR,10S)-10-((R)-(2,3-difluorophenyl)(phenyl)methyl)-3,5-dioxo-3,5,8,9,9a,10-hexahydro-7H-pyrrolo[1′,2′:4,5]pyrazino[1,2-b]pyridazin-4-yl (2-methoxyethyl) carbonate], the pEC50 in assay [1], in assay [2] and in assay [3] was > 7.00 each time.
As for `CC(C)OC(=O)Oc1c2n(ncc1=O)[C@@H]([C@H](c1ccccc1)c1cccc(F)c1F)[C@H]1CCCN1C2=O` [Example 34, (9aR,10S)-10-((R)-(2,3-difluorophenyl)(phenyl)methyl)-3,5-dioxo-3,5,8,9,9a,10-hexahydro-7H-pyrrolo[1′,2′:4,5]pyrazino[1,2-b]pyridazin-4-yl isopropyl carbonate], the pEC50 in assay [1], in assay [2] and in assay [3] was > 7.00 throughout.
As to `COC(=O)OC(C)Oc1c2n(ncc1=O)[C@@H]([C@H](c1ccccc1)c1cccc(F)c1F)[C@H]1CCCN1C2=O` (stereo partly drawn) [Example 33, 1-(((9aR,10S)-10-((R)-(2,3-difluorophenyl)(phenyl)methyl)-3,5-dioxo-3,5,8,9,9a,10-hexahydro-7H-pyrrolo[1′,2′:4,5]pyrazino[1,2-b]pyridazin-4-yl)oxy)ethyl methyl carbonate], the pEC50 was > 7.00 in assay [1], 6.00 to 7.00 in assay [2] and > 7.00 in assay [3].
As for `Cc1cccc([C@@H](c2cccc(F)c2)[C@H]2[C@H]3CCCN3C(=O)c3c(O)c(=O)cnn32)c1F` [Example 12, (9aR,10S)-10-((R)-(2-fluoro-3-methylphenyl)(3-fluorophenyl)methyl)-4-hydroxy-8,9,9a,10-tetrahydro-7H-pyrrolo[1′,2′:4,5]pyrazino[1,2-b]pyridazine-3,5-dione], the pEC50 in assay [1], in assay [2] and in assay [3] was 6.00 to 7.00 throughout.
As to `CC(C)CC(=O)OCOc1c2n(ncc1=O)[C@@H]([C@H](c1ccccc1)c1cccc(F)c1F)[C@H]1CCCN1C2=O` [Example 72, (((9aR,10S)-10-((R)-(2,3-difluorophenyl)(phenyl)methyl)-3,5-dioxo-3,5,8,9,9a,10-hexahydro-7H-pyrrolo[1′,2′:4,5]pyrazino[1,2-b]pyridazin-4-yl)oxy)methyl 3-methylbutanoate], the pEC50 in assay [1], in assay [2] and in assay [3] was > 7.00 throughout.
As for `CN(C)C(=O)OCOc1c2n(ncc1=O)[C@@H]([C@H](c1ccc(F)cc1)c1cccc(F)c1F)[C@H]1CCCN1C2=O` [Example 85, (((9aR,10S)-10-((R)-(2,3-difluorophenyl)(4-fluorophenyl)methyl)-3,5-dioxo-3,5,8,9,9a,10-hexahydro-7H-pyrrolo[1′,2′:4,5]pyrazino[1,2-b]pyridazin-4-yl)oxy)methyl dimethylcarbamate], the pEC50 was 6.00 to 7.00 in assay [1], ≤ 6.00 in assay [2] and 6.00 to 7.00 in assay [3].
Take `COC(=O)OCOc1c2n(ncc1=O)[C@@H]([C@H](c1ccccc1)c1cccc(F)c1F)[C@H]1CCCN1C2=O` [Example 30, (((9aR,10S)-10-((R)-(2,3-difluorophenyl)(phenyl)methyl)-3,5-dioxo-3,5,8,9,9a,10-hexahydro-7H-pyrrolo[1′,2′:4,5]pyrazino[1,2-b]pyridazin-4-yl)oxy)methyl methyl carbonate]: the pEC50 in assay [1], in assay [2] and in assay [3] was > 7.00 in each case.
As for `O=C(Oc1c2n(ncc1=O)[C@@H]([C@H](c1ccccc1)c1cccc(F)c1F)[C@H]1CCCN1C2=O)c1ccccc1` [Example 69, (9aR,10S)-10-((R)-(2,3-difluorophenyl)(phenyl)methyl)-3,5-dioxo-3,5,8,9,9a,10-hexahydro-7H-pyrrolo[1′,2′:4,5]pyrazino[1,2-b]pyridazin-4-yl benzoate], the pEC50 in assay [1], in assay [2] and in assay [3] was > 7.00 throughout.
`COc1ccc([C@@H](c2ccc(F)cc2)[C@H]2[C@H]3CCCN3C(=O)c3c(O)c(=O)cnn32)cc1` [Example 26, (9aR,10S)-10-((S)-(4-fluorophenyl)(4-methoxyphenyl)methyl)-4-hydroxy-8,9,9a,10-tetrahydro-7H-pyrrolo[1′,2′:4,5]pyrazino[1,2-b]pyridazine-3,5-dione]: the pEC50 in assay [1], in assay [2] and in assay [3] was 6.00 to 7.00 throughout.
In the case of `O=C1c2c(O)c(=O)cnn2[C@@H]([C@H](c2ccccc2)c2c(F)ccc(F)c2F)[C@H]2CCCN12` [Example 16, (9aR,10S)-4-hydroxy-10-((R)-phenyl(2,3,6-trifluorophenyl)methyl)-8,9,9a,10-tetrahydro-7H-pyrrolo[1′,2′:4,5]pyrazino[1,2-b]pyridazine-3,5-dione], the pEC50 in assay [1], in assay [2] and in assay [3] was > 7.00 each time.
With `O=C1c2c(O)c(=O)cnn2[C@@H]([C@H](c2cccc(C(F)(F)F)c2)c2cccc(F)c2F)[C@H]2CCCN12` [Example 3, (9aR,10S)-10-((R)-(2,3-difluorophenyl)(3-(trifluoromethyl)phenyl)methyl)-4-hydroxy-8,9,9a,10-tetrahydro-7H-pyrrolo[1′,2′:4,5]pyrazino[1,2-b]pyridazine-3,5-dione], the pEC50 in assay [1], in assay [2] and in assay [3] was > 7.00 each time.
Turning to `O=C(Oc1c2n(ncc1=O)[C@@H]([C@H](c1ccccc1)c1cccc(F)c1F)[C@H]1CCCN1C2=O)OC1CCOCC1` [Example 74, (9aR,10S)-10-((R)-(2,3-difluorophenyl)(phenyl)methyl)-3,5-dioxo-3,5,8,9,9a,10-hexahydro-7H-pyrrolo[1′,2′:4,5]pyrazino[1,2-b]pyridazin-4-yl (tetrahydro-2H-pyran-4-yl) carbonate], the pEC50 in assay [1], in assay [2] and in assay [3] was > 7.00 in each case.
Turning to `Cc1ccccc1[C@H](c1cccc(C)c1F)[C@H]1[C@H]2CCCN2C(=O)c2c(O)c(=O)cnn21` [Example 17, (9aR,10S)-10-((R)-(2-fluoro-3-methylphenyl)(o-tolyl)methyl)-4-hydroxy-8,9,9a,10-tetrahydro-7H-pyrrolo[1′,2′:4,5]pyrazino[1,2-b]pyridazine-3,5-dione], the pEC50 was > 7.00 in assay [1], 6.00 to 7.00 in assay [2] and 6.00 to 7.00 in assay [3].
Take `O=C1c2c(O)c(=O)cnn2[C@@H]([C@@H](c2ccc(F)cc2)c2cccc(C(F)(F)F)c2)[C@H]2CCCN12` [Example 1, (9aR,10S)-10-((S)-(4-fluorophenyl)(3-(trifluoromethyl)phenyl)methyl)-4-hydroxy-8,9,9a,10-tetrahydro-7H-pyrrolo[1′,2′:4,5]pyrazino[1,2-b]pyridazine-3,5-dione]: the pEC50 in assay [1], in assay [2] and in assay [3] was > 7.00 in each case.
Take `O=C1c2c(O)c(=O)cnn2[C@@H]([C@@H](c2ccc(F)cc2)c2ccc(OC(F)(F)F)cc2)[C@H]2CCCN12` [Example 5, (9aR,10S)-10-((R)-(4-fluorophenyl)(4-(trifluoromethoxy)phenyl)methyl)-4-hydroxy-8,9,9a,10-tetrahydro-7H-pyrrolo[1′,2′:4,5]pyrazino[1,2-b]pyridazine-3,5-dione]: the pEC50 in assay [1], in assay [2] and in assay [3] was 6.00 to 7.00 throughout.
